T1: Solute carrier organic anion transporter family member 1A3 (Rattus norvegicus, UniProt P70502)
T1 sequence (P70502 whole entry): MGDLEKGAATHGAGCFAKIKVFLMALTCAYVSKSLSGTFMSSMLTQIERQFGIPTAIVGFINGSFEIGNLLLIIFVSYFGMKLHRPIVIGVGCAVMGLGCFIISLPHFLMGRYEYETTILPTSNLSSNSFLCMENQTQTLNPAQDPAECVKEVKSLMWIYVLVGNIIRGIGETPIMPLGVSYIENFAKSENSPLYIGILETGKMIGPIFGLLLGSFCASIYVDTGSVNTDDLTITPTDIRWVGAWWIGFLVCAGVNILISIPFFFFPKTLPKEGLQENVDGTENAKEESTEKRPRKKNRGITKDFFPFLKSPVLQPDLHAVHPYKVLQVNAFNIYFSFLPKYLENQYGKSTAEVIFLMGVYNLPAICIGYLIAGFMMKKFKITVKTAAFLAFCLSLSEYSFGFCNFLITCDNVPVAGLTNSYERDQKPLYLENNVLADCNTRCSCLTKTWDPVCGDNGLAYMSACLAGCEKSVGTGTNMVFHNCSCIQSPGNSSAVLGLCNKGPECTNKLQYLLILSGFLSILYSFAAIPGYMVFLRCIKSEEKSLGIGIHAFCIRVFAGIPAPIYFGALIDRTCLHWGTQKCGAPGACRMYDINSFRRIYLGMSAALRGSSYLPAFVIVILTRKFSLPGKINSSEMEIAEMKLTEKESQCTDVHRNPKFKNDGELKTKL

B1: Solute carrier organic anion transporter family member 1A3 (Rattus norvegicus) (protein)
chain: MGDLEKGAATHGAGCFAKIKVFLMALTCAYVSKSLSGTFMSSMLTQIERQFGIPTAIVGFINGSFEIGNLLLIIFVSYFGMKLHRPIVIGVGCAVMGLGCFIISLPHFLMGRYEYETTILPTSNLSSNSFLCMENQTQTLNPAQDPAECVKEVKSLMWIYVLVGNIIRGIGETPIMPLGVSYIENFAKSENSPLYIGILETGKMIGPIFGLLLGSFCASIYVDTGSVNTDDLTITPTDIRWVGAWWIGFLVCAGVNILISIPFFFFPKTLPKEGLQENVDGTENAKEESTEKRPRKKNRGITKDFFPFLKSPVLQPDLHAVHPYKVLQVNAFNIYFSFLPKYLENQYGKSTAEVIFLMGVYNLPAICIGYLIAGFMMKKFKITVKTAAFLAFCLSLSEYSFGFCNFLITCDNVPVAGLTNSYERDQKPLYLENNVLADCNTRCSCLTKTWDPVCGDNGLAYMSACLAGCEKSVGTGTNMVFHNCSCIQSPGNSSAVLGLCNKGPECTNKLQYLLILSGFLSILYSFAAIPGYMVFLRCIKSEEKSLGIGIHAFCIRVFAGIPAPIYFGALIDRTCLHWGTQKCGAPGACRMYDINSFRRIYLGMSAALRGSSYLPAFVIVILTRKFSLPGKINSSEMEIAEMKLTEKESQCTDVHRNPKFKNDGELKTKL

Columns and labels:
Format in all cases: functional, cell-based
[1] = biological target: T1, Solute carrier organic anion transporter family member 1A3; test: TP_TRANSPORTER: uptake in Xenopus laevis oocytes; conditions: oocyte
[2] = biological target: T1, Solute carrier organic anion transporter family member 1A3; test: TP_TRANSPORTER: inhibition of MTX uptake (MTX: 0.01 uM, PAH: 100 uM) in OAT-K1-expressing MDCK cells; conditions: dog
[3] = substrate: CN(Cc1cnc2nc(N)nc(N)c2n1)c1ccc(C(=O)N[C@@H](CCC(=O)O)C(=O)O)cc1; test: TP_TRANSPORTER: uptake in OAT-K1-expressing MDCK cells

| Molecule | Activity [1] | Activity [2] | Km [3] [µM] |
| --- | --- | --- | --- |
| Nc1ccc(C(=O)NCC(=O)O)cc1 [AMINOHIPPURIC ACID] | is not a substrate [-] | inhibitor [(at a rough estimate) 55 % of control] |  |
| B1 |  |  | 2.1 |

Source: ChEMBL document CHEMBL2074116, “Functional analysis of rat renal organic anion transporter OAT-K1: bidirectional methotrexate transport in apical membrane” (FEBS Lett, 1999)
